Source: patent US12440479B2, “Prevention or treatment of chronic organ injury” (GEORG-AUGUST-UNIVERSITAET GOETTINGEN, STIFTUNG …, priority 2018, dated 2025)

Legend:
[1] = system: UUO-challenged kidneys; test: Unilateral ureteral obstruction (UUO): tubular injury and interstitial fibrosis (histology, immunostaining); assay type: in vivo, mice
[2] = system: intrarenal ARNT/ALK3 signaling; test: UUO kidneys: ARNT/ALK3 expression and pSmad1/5/8 (qRT-PCR, immunoblotting, immunostaining); assay type: in vivo, mice; conditions: for canonical BMP signaling responses / intrarenal ARNT and ALK3 transcription: FK506 0.2 mg/kg or GPI-1046 30 mg/kg orally per day starting three days after UUO; for intrarenal NFAT signaling: picomolar FK506 or GPI-1046
Description: Eight to twelve weeks-old C57/6, yGTcre−;Yy1fl/fl and yGTcre+;Yy1fl/fl mice were anesthetized with isoflurane inhalation (2-3%), analgesia was performed by subcutaneous injection of 0.1 mg/kg body weight per day Buprenorphine. The ureter was separated from the surrounding tissues and two ligatures were placed about 5 mm apart in upper two-thirds of the left ureter to obtain reliable obstruction. Mice were sacrificed 3, 7 or 10 days after ureteral obstruction for further analyses, as described before (53, 153-155).
Paraffin-embedded specimens were deparaffinized in xylene and rehydrated in ethanol containing distilled water. Tissue sections were stained using polyclonal antibodies against ALK3 (sc-20736, Santa Cruz Biotechnology, Dallas, USA) and ARNT (3718S, Cell Signaling, Danvers, USA), peroxidase labeling was performed using Vectastain Universal Elite ABC Kit (Vector Laboratories, Burlingame, USA) according to the manufacturer's protocol. AEC Substrate-Chromogen (Dako, Glostrup, Denmark) was applied for peroxidase visualization according to the manufacturer's protocol. Nuclear counterstain was performed by using Mayer's Hematoxylin Solution (Sigma, St. Louis, USA).
For immunofluorescent staining, primary antibodies against ARNT (5537S, Cell Signaling, Danvers, USA), Hif1α (H6535, Sigma, St. Louis, USA), Hif2α (ab20654, Abcam Biochemicals, Cambridge, UK), phosphorylated Smad1/5/8 (pSmad1/5/8, sc-12353, Santa Cruz Biotechnology, Dallas, USA), CD45 (550539, BD Biosciences, Franklin Lakes, USA), Collagen-1 (ab34710, Abcam Biochemicals, Cambridge, UK), α-smooth muscle actin (aSMA, A5228, Sigma, St. Louis, USA), FKBP12 (ab2918, Abcam Biochemicals, Cambridge, UK) and YY1 (ab12132, Abcam Biochemicals, Cambridge, UK) were used, secondary antibodies were labeled with Alexa Fluor 488 or 568 (Life Technologies, Carlsbad, USA). Renal basement membranes were stained with antibodies against Collagen-4 (1340-30, SouthernBiotech, Birmingham, USA), cardiac cell membranes with antibodies against WGA (W11261, Life Technologies, Carlsbad, USA). Nuclear staining was performed using 4′,6-diamidino-2-phenylindole (DAPI, Vector Laboratories, Burlingame, USA). Relative areas positive for Collagen-1, aSMA, tubular nuclei positive for ARNT and pSmad1/5/8 were quantified in 10 high power fields per section at 400× magnification.
For SYBR-based real-time PCR, cDNA synthesis was performed by using DNase I digestion (Invitrogen, Carlsbad, USA) and SuperScript II Reverse Transcriptase (Invitrogen, Carlsbad, USA) according to the manufacturer's protocol. 1 μL of reverse-transcribed cDNA was added to the reaction mixture containing the primer pair (200 nmol/L each) and diluted 2× Fast SYBR Green Master Mix (Applied Biosystems, Carlsbad, USA) in a final volume of 20 μL for each PCR reaction. The real-time PCR reactions were performed in a 96-well reaction plate using the StepOne Plus Real-Time System (Applied Biosystems, Carlsbad, USA) and were done in triplicates. An initiation step at 95° C. for 20 seconds was followed by 40 cycles at 95° C. for 3 to seconds and 60° C. for 30 seconds, with one cycle of dissociation at 95° C. for 15 seconds, 60° C. for 60 seconds, and 95° C. for 15 seconds. The intercalation of SYBR Green dye and its fluorescent signal is directly proportional to the amount of amplified DNA and was transformed into the cycle threshold (Ct). For normalization, the Ct values of the housekeeping genes Gapdh and Actb were subtracted from the Ct values of the gene of interest to generate the dCt values. The relative expression levels were calculated using the equation 2^−ddCt.
Tissue and cells were homogenized in NP40 lysis buffer (Life technologies, Carlsbad, USA) supplemented with protease inhibitor cocktail (Roche, Basel, Switzerland).

[3] = system: functional parenchyma; test: Streptozotocin (STZ) model of diabetic nephropathy; assay type: in vivo; conditions: STZ mice; FK506 0.2 mg/kg or GPI-1046 10 mg/kg subcutaneously per day
Description: Based on these observations, we next hypothesized that FK506 and small molecule FKBP12 inhibitor GPI-1046 could equally protect functional parenchyma in an experimental models of diabetic nephropathy (168). Diabetes was induced in 8 to 12 weeks old C57BL/6N mice by a single intraperitoneal injection of streptozotocin (STZ) at 200 mg/kg in 10 mmol/L citrate buffer (pH 4.5), citrate buffer alone was injected as control (168). FK506 (0.2 mg/kg body weight) and GPI-146 (10 mg/kg body weight) in DMSO once daily were applied by subcutaneous injections starting one day prior of STZ administration. At day 3 after STZ injection, diabetes was confirmed by urine dipstick. Mice were sacrificed 8 weeks after STZ injection for further analyses.

[4] = system: ARNT; test: ARNT mRNA expression levels in organs of treated mice (qRT-PCR); assay type: in vivo; conditions: FK506 0.2 mg/kg or GPI-1046 30 mg/kg orally per day; kidney, heart, brain, spinal cord, skin, liver, lung and intestine
Description: Solutions were changed once a day and mice were sacrificed at indicated time points.
Mice were injected subcutaneously with 10 mg/kg body weight per day GPI-1046 (Santa Cruz Biotechnology, Dallas, USA) in DMSO once daily starting one day prior of surgery, control mice received equivalent volume of vehicle DMSO. For oral administration, GPI-1046 stock solution was diluted in glucose-water (5%) and orally applied on the basis of an average drinking volume of 3 mL and a body weight of 20 g per mouse. Three days after challenging with UUO, mice were treated orally with either vehicle buffer glucose (5%) or 30 mg/kg body weight per day GPI-1046, respectively.
For SYBR-based real-time PCR, cDNA synthesis was performed by using DNase I digestion (Invitrogen, Carlsbad, USA) and SuperScript II Reverse Transcriptase (Invitrogen, Carlsbad, USA) according to the manufacturer's protocol. 1 μL of reverse-transcribed cDNA was added to the reaction mixture containing the primer pair (200 nmol/L each) and diluted 2× Fast SYBR Green Master Mix (Applied Biosystems, Carlsbad, USA) in a final volume of 20 μL for each PCR reaction. The real-time PCR reactions were performed in a 96-well reaction plate using the StepOne Plus Real-Time System (Applied Biosystems, Carlsbad, USA) and were done in triplicates. […] The relative expression levels were calculated using the equation 2^−ddCt.

[5] = UUO, FK506 0.2 mg/kg or GPI-1046 30 mg/kg orally per day starting three days after UUO
[6] = UUO, FK506 0.02-5.0 mg/kg or CsA 10 mg/kg orally per day starting one day prior to UUO
[7] = UUO, VMO 12.5 mg/kg intraperitoneally or FK506 0.2 mg/kg orally per day
[8] = UUO, intrarenal ARNT induction depleted (Arnt-VMO)

| Structure (SMILES) | effect of FK506 on ALK3 expression, nuclear pSmad1/5/8, tubular injury or interstitial fibrosis ([1]; UUO mice that had also received Fkbp12-VMO or Yy1-VMO) | effect of FK506 on BMP signaling, tubular injury, renal fibrogenesis, ALK3 transcription ([1]; UUO, mice with YY1 depleted in TECs (yGTcre+;Yy1fl/fl), FK506 0.2 mg/kg orally per day) | tubular injury and renal fibrogenesis [1, 5] | chronic tubular injury [1, 6] | interstitial fibrosis [1, 6] | tubular injury and tubulointerstitial fibrosis [1, 7] | protection of kidneys from tubular injury and progressive fibrotic disease [1, 8] | renal ARNT expression ([2]; UUO mice, low-dose FK506 or CsA) | nuclear pSmad1/5/8 ([2]; UUO-challenged murine kidneys) | expression of ALK3 ([2]; UUO-challenged murine kidneys, treatment starting one day prior) | canonical BMP signaling responses ([2]; UUO) | intrarenal ARNT and ALK3 transcription ([2]; UUO) | intrarenal ARNT, ALK3 and nuclear pSmad1/5/8 immunostaining [2, 7] | intrarenal ALK3-dependent BMP signaling responses [2, 8] | intrarenal NFAT signaling ([2]; UUO) | protection of functional parenchyma from chronic injury [3] | transcriptional ARNT induction in organs [4] | tubular injury and renal fibrogenesis ([1]; UUO, 10 mg/kg subcutaneously per day starting one day prior) | intrarenal ARNT and ALK3 transcription, BMP signaling responses ([2]; UUO, 10 mg/kg subcutaneously per day starting one day prior, compared to FK506) |
| --- | --- | --- | --- | --- | --- | --- | --- | --- | --- | --- | --- | --- | --- | --- | --- | --- | --- | --- | --- |
| C=CC[C@@H]1/C=C(\C)C[C@H](C)C[C@H](OC)[C@H]2O[C@@](O)(C(=O)C(=O)N3CCCC[C@H]3C(=O)O[C@H](/C(C)=C/[C@@H]3CC[C@@H](O)[C@H](OC)C3)[C@H](C)[C@@H](O)CC1=O)[C@H](C)C[C@@H]2OC [FK506, tacrolimus] | no additive effects | no additive effects | attenuated | reduced | reduced | attenuated | failure of FK506 to protect | significantly increased | nuclear pSmad1/5/8 accumulation | specifically induced | enhanced | equally effective | equally induced | failed to induce | not affecting | equally effective | transcriptional ARNT induction was present | – | – |
| CCC(C)(C)C(=O)C(=O)N1CCC[C@H]1C(=O)OCCCc1cccnc1 [GPI-1046, 3-(3-pyridyl)-1-propyl-(2S)-1-(3,3-dimethyl-1,2-dioxopentyl)-2-pyrrolidinedine carboxylate] | – | – | attenuated | – | – | – | – | – | – | – | enhanced | equally effective | – | – | not affecting | equally effective | transcriptional ARNT induction was present | protected | equally induced |
